Source: patent publication US10774051B2, “6-membered heterocyclic derivatives and pharmaceutical composition comprising the same” (Shionogi & Co., Ltd., priority 2015, dated 2020)

The compounds below were run against human P2X7 receptor (Homo sapiens, UniProt Q99572, R270H/Y155H) (assay: Evaluation of human P2X7 receptor inhibitory activity (Yo-Pro uptake, BzATP stimulation, FLIPR TETRA)). Details: 1321N1 cells stably expressing human P2X7 receptor; BzATP stimulation, Yo-Pro uptake; read-out: IC50 (antagonistic activity for the human P2X7 receptor).
Type: cell-based
Outline: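 1321N1 cells stably expressing human P2X7 (T606C/G952A SNP variant), in HBSS buffer pH 7.4-7.5 with Yo-Pro, stimulated with BzATP; compound added 8 min after agonist. Fluorescence followed for 20 min on FLIPR; max-minus-min change gave % inhibition, IC50 by logistic fit.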

Row | Structure (SMILES) | IC50 [nM]
1 | COc1cn(Cc2ccc(F)c(Cl)c2)c(Oc2cc3sc(C)nc3cc2C)cc1=O [Compound I-0966] | 480
2 | COc1cn(Cc2cc(F)cc(F)c2)c(Nc2ccc3ncsc3c2C)nc1=O [Compound I-0857] | 26
3 | COc1cn(Cc2ccc(F)c(Cl)c2)c(Nc2c(C)cc3oc(C)cc3c2C)nc1=O [Compound I-0833] | 39
4 | Cc1nc2cc(C)c(Nc3nc(=O)c(C)nn3Cc3cc(F)c(F)c(F)c3)cc2s1 [Compound I-1267] | 10
5 | COc1cn(Cc2ccccc2)c(Nc2cccc3c2CCCC3)nc1=O [Compound I-0190] | 71
6 | COc1ccc(Nc2nc(=O)c(F)cn2Cc2ccc(F)c(Cl)c2)c(C)n1 [Compound I-1059] | 11
7 | C=Cc1ccccc1Nc1nc(=O)c(F)cn1Cc1cc(F)c(F)c(F)c1 [Compound I-1188] | 4
8 | COc1cc(C)c(Nc2nc(=O)c(OC)cn2Cc2cc(F)cc(Cl)c2)cc1OC [Compound I-0452] | 110

Same assay, conditions: 1321N1 cells stably expressing human P2X7 receptor; BzATP stimulation, Yo-Pro uptake; read-out: IC50 (antagonistic activity for the human P2X7 receptor), class symbol

Row | Structure (SMILES) | IC50 [nM]
9 | COc1cn(Cc2ccccc2)c(Nc2c(Cl)cccc2Cl)nc1=O [Compound I-0083] | 500 to 1000
10 | CCc1ccccc1Nc1nc(=O)c(OC)cn1Cc1cc(F)cc(Cl)c1 [Compound I-0435] | 10 to 100
11 | COc1cn(Cc2ccccc2OC(F)F)c(Nc2cccc(Cl)c2C)nc1=O [Compound I-0446] | < 10
12 | COc1cn(Cc2ccccc2)c(Nc2cc(C(F)(F)F)ccc2C)nc1=O [Compound I-0097] | 100 to 500
13 | COc1cn(Cc2ccc(F)c(Cl)c2)c(Nc2cc(OC(C)C)ccc2C)nc1=O [Compound I-0321] | 10 to 100
14 | CCc1cc(OC)c(OC)cc1Nc1nc(=O)c(F)cn1Cc1cccc(Cl)c1 [Compound I-0350] | < 10
15 | COc1cn(Cc2cccc(Cl)c2)c(Nc2cccc(C)c2C)nc1=O [Compound I-0312] | 10 to 100
16 | COc1cn(Cc2ccccc2)c(Nc2cc(Cl)c(Cl)cc2Cl)nc1=O [Compound I-0154] | 100 to 500
17 | COc1cn(Cc2ccc(C)cc2)c(Nc2cccc(Cl)c2C)nc1=O [Compound I-0045] | 500 to 1000
18 | COc1cn(Cc2cccc(Cl)c2)c(Nc2cccc(OC(F)F)c2C)nc1=O [Compound I-0479] | 10 to 100
19 | COc1cn(Cc2ccccc2)c(Nc2cccc(OC(C)C)c2C)nc1=O [Compound I-0129] | 100 to 500
20 | COc1cc(C)c(Nc2nc(=O)c(F)cn2Cc2ccc(F)c(Cl)c2)cc1C [Compound I-0349] | < 10
21 | COC(=O)c1ccc(C)c(Nc2nc(=O)c(OC)cn2Cc2ccccc2)c1 [Compound I-0150] | 100 to 500
22 | COc1cn(Cc2ccccc2)c(NCc2ccccc2C(F)(F)F)nc1=O [Compound I-0065] | 500 to 1000
23 | CCc1cc(OC)c(OC)cc1Nc1nc(=O)c(OC)cn1Cc1ccc(F)cc1 [Compound I-0270] | < 10
24 | Cc1ccc(N2CCCS2(=O)=O)cc1Nc1nc(=O)c(F)cn1Cc1ccccc1 [Compound I-0148] | 10 to 100

Row | Structure (SMILES) | IC50 [nM]
25 | COc1cn(Cc2ccccc2OC(F)(F)F)c(Nc2cccc(Cl)c2C)nc1=O [Compound I-0303] | 100 to 500
26 | COc1cn(Cc2cc(F)cc(F)c2)c(Nc2cc(C)c(Cl)cc2C)nc1=O [Compound I-0378] | < 10
27 | COc1cn(Cc2ccc(F)c(Cl)c2)c(Nc2ccc(N3CCOCC3)cc2C)nc1=O [Compound I-0548] | 10 to 100
28 | COc1cn(Cc2ccccc2)c(Nc2cc(CO)c(C)cc2C)nc1=O [Compound I-0278] | < 10
29 | CCc1cc(OC)c(OC)cc1Nc1nc(=O)c(F)cn1Cc1ccc(F)c(Cl)c1 [Compound I-0268] | < 10
30 | COc1cn(Cc2cccc(F)c2F)c(Nc2cccc(Cl)c2C)nc1=O [Compound I-0286] | 10 to 100
31 | CCOc1cn(Cc2ccccc2)c(Nc2cccc(Cl)c2C)nc1=O [Compound I-0137] | 10 to 100
32 | CCc1ccccc1Nc1nc(=O)c(OC)cn1Cc1ccc(F)c(Cl)c1 [Compound I-0252] | < 10
33 | COc1c(C)ccc(Nc2nc(=O)c(OC)cn2Cc2ccccc2)c1C [Compound I-0410] | < 10
34 | COc1cn(Cc2ccc(F)c(Cl)c2)c(Nc2cc(C)c(F)cc2C)nc1=O [Compound I-0507] | < 10
35 | COc1cn(Cc2ccc(F)c(F)c2)c(Nc2cccc3[nH]c(C)cc23)nc1=O [Compound I-0488] | 10 to 100
36 | Cc1c(Cl)cccc1Nc1nc(=O)c(CC(=O)N(C)C)cn1Cc1ccccc1 [Compound I-0331] | 100 to 500
37 | COc1cn(Cc2ccccc2)c(Nc2cccc(Cl)c2Cl)nc1=O [Compound I-0096] | 10 to 100
38 | COc1cn(Cc2ccccc2)c(Nc2ccc(OC(C)C)cc2C)nc1=O [Compound I-0191] | 100 to 500
39 | CCc1cc(Br)ccc1Nc1nc(=O)c(OC)cn1Cc1ccccc1 [Compound I-0101] | 10 to 100

Same assay, conditions: antagonistic activity for the human P2X7 receptor; read-out: IC50

Row | Structure (SMILES) | IC50 [nM]
40 | COc1cn(Cc2cc(F)cc(Cl)c2)c(Nc2cccc(SC)c2C)nc1=O [Compound I-0682] | 10 to 100
41 | Cc1ccc(Nc2nc(=O)c(F)cn2Cc2cc(F)c(F)c(F)c2)c(C)c1 [Compound I-1193] | < 10
42 | COc1cn(Cc2cc(F)c(F)c(F)c2)c(Nc2cc3c(cc2C)OCCC3)nc1=O [Compound I-0917] | 10 to 100
43 | Cc1ccc(CO)cc1Nc1nc(=O)c(C)nn1Cc1cc(F)c(F)c(F)c1 [Compound I-1254] | < 10
44 | CCOc1ccc(Nc2nc(=O)c(F)cn2Cc2cc(F)c(F)c(F)c2)c(C)c1 [Compound I-1034] | < 10
45 | Cc1nc2cc(C)c(Nc3nc(=O)c(F)cn3Cc3cc(F)c(F)c(F)c3)cc2s1 [Compound I-0937] | < 10
46 | COc1ccc(Nc2nc(=O)cnn2Cc2cc(F)c(F)c(F)c2)c(C)c1 [Compound I-1283] | < 10
47 | COc1cn(Cc2cc(F)cc(F)c2)c(Nc2cc(-n3cccc3)ccc2C)nc1=O [Compound I-0655] | 10 to 100
48 | CCc1cc2c(cc1Nc1nc(=O)c(OC)cn1Cc1ccc(F)c(Cl)c1)OCCO2 [Compound I-0798] | 10 to 100
49 | CCOc1cn(Cc2ccccc2)c(Nc2cc(OC)c(OC)cc2C)nc1=O [Compound I-0759] | 10 to 100
50 | COc1ccc(C)c(Nc2nc(=O)cnn2Cc2cc(F)c(F)c(F)c2)c1 [Compound I-1282] | < 10
51 | COc1cc(C)c(Nc2nc(=O)c(C)nn2Cc2cc(F)c(F)c(F)c2)cc1OC [Compound I-1266] | 10 to 100
52 | COc1cn(Cc2cc(F)c(F)c(F)c2)c(Nc2cc3cc[nH]c3cc2C)nc1=O [Compound I-0938] | < 10
53 | Cc1cn(Cc2cc(F)cc(F)c2)c(Nc2ccc3[nH]ccc3c2C)nc1=O [Compound I-1164] | < 10
54 | Cc1cc(Nc2nc(=O)c(F)cn2Cc2cc(F)cc(F)c2)c(Cl)cc1F [Compound I-1224] | < 10
55 | COCc1cn(Cc2cc(F)c(F)c(F)c2)c(Nc2cc3c(cc2C)COC3)nc1=O [Compound I-1126] | 10 to 100
56 | Cc1ccc(-c2cscn2)cc1Nc1nc(=O)c(F)cn1Cc1ccc(F)c(F)c1 [Compound I-0861] | < 10
57 | COc1cn(Cc2ccc(F)cc2)c(Nc2cccc(OC(F)F)c2C)nc1=O [Compound I-0660] | 10 to 100
58 | Cc1cc(S(C)(=O)=O)cc(Nc2nc(=O)c(F)cn2Cc2cc(F)c(F)c(F)c2)c1C [Compound I-1212] | < 10
59 | Cc1ccc(OCCO)cc1Nc1nc(=O)c(C)cn1Cc1cc(F)c(F)c(F)c1 [Compound I-1145] | 10 to 100
60 | Cc1ccc(CF)cc1Nc1nc(=O)c(F)cn1Cc1cc(F)c(F)c(F)c1 [Compound I-1231] | < 10
